Tests used:
[1] = biological target: T1, sigma-1 receptor (Cavia porcellus, UniProt Q60492); experiment: Sigma-1 receptor binding, [3H](+)-pentazocine displacement in guinea pig brain membrane homogenates; details: inhibiting binding of [3H](+)-pentazocine to guinea pig brain homogenates; mean ± S.E.M., at least three experiments
T1 construct: guinea pig brain (sigma-1 assay) or rat liver (sigma-2 assay) membrane homogenates; from tissue; host or cells: guinea pig brain membrane homogenate
Description: The sigma-1 and sigma-2 receptor binding affinities of SW IV-134 were determined as previously described. Briefly, guinea pig brain (sigma-1 assay) or rat liver (sigma-2 assay) membrane homogenates (~300 μg protein) were diluted with 50 mM Tris-HCl, pH 8.0 and incubated with the radioligand {~5 nM [^3H](+)-pentazocine (34.9 Ci/mmol; sigma-1 assay) or ~5 nM [3H](+)-DTG (58.1 Ci/mmol; sigma-2 assay)} and SW IV-134 with concentrations ranging from 0.1 nM to 10 μM in a total volume of 150 μL in 96-well plates at 25°C. […] Each filter was washed three times with 200 μL of ice-cold wash buffer, and the bound radioactivity quantified using a Wallac 1450 MicroBeta liquid scintillation counter (Perkin Elmer, Boston, MA). Nonspecific binding was determined in the presence of 10 μM cold haloperidol. […]
Table S1. […] The sigma-1 and sigma-2 receptor binding affinities of S W I V-134 were determined as previously described (22). For details see also the Materials and Methods section. a Mean ± S .E .M .K i values were determined by at least three ex periments. b Ki for inhibiting the binding of [ 3H] […]

[2] = system: SKOV3-Luc xenografts; experiment: Intraperitoneal SKOV3-Luc xenograft model of ovarian cancer (bioluminescence imaging, survival); assay type: in vivo, SCID mice; details: for Tumor response by bioluminescence signal intensity during treatment: start 7 days after inoculation, first week onward; for Median survival: daily i.p. for 3 weeks, 10 mice per group followed, vehicle 74 days
Source text: Figure 6 SW IV-134 is a potent single-agent cancer drug in a peritoneal mouse xenograft model of ovarian cancer. (A) Female SCID mice were inoculated intraperitoneally with 5 × 10^6 SKOV3-Luc cells. Treatment was initiated with intraperitoneal injections of SW43, SW IV-134, or vehicle control 7 days after tumor cell inoculation, and continued for a total of 3 weeks. Mice were imaged once a week during the treatment period. Change in bioluminescence photon flux during treatment in each experimental arm (n = 15) was evaluated. Bioluminescent signals at each time point were averaged per treatment group (mean ± SEM). Significant differences were noted between vehicle vs. SW IV-134 and SW43 vs. SW IV-134 (p < 0.0097, one-way ANOVA). (B) Bioluminescent images at the end of the treatment (day 21) of one representative mouse per treatment arm (n = 15). […] (C) Kaplan-Meier survival analysis. At the end of the 3 week treatment, 5 mice from each experimental group were subjected to necropsy. The remaining 10 mice from each treatment group were followed until death to examine overall survival (p < 0.0108, Log-rank test).
All studies were performed in accordance with an animal protocol approved by the Washington University Institutional Animal Care Facility. Female severe combined immunodeficient mice (SCID) were purchased from Taconic Farms (Hudson, NY) at age 6 weeks. SKOV3-Luc cells (5 × 10^6) were inoculated intraperitoneally and mice were randomized 7 days later into one of the three treatment groups according to their baseline luciferase activity employing bioluminescence imaging (BLI). For bioluminescence imaging, mice were injected intraperitoneally with 150 μg/g D-luciferin (Biosynth, Naperville, IL) in PBS, anesthetized with 2.5% isoflurane, and imaged with a charge-coupled device (CCD) camera-based bioluminescence imaging system (IVIS 100; Caliper, Hopkinton, MA; exposure time 300 seconds, binning 16, field of view 12, f/stop 1, open filter).
In vivo experiments were conducted with 15 mice per treatment group. Treatment involved daily intraperitoneal injections with 90 μL of SW43 (7.5 mM stock), SW IV-134 (7.5 mM stock), or vehicle-only (25% cremophor in H2O) for 3 weeks. Tumor burden was monitored by bioluminescence imaging once a week during the treatment period. At the end of the treatment, 5 mice were randomly removed per treatment group and submitted for necropsy to the Washington University Department of Comparative Medicine. Blood samples were collected by intracardiac withdrawal prior to necropsy for chemistry and hematology work-up. In addition, various key organs were harvested for gross and histopathological examination. The remaining 10 mice from each treatment group were followed over time to examine overall survival. For survival studies, actual death or poor physical condition/large tumor size meeting criteria for euthanasia, constituted a death event.

[3] = system: SKOV3 cells; experiment: Blocking study: competition with uptake of fluorescent sigma-2 ligand SW120, flow cytometry; assay type: cell-based; details: SKOV3 cells pretreated 30 min with increasing concentrations, then 10 nM SW120 for 30 min
Description: Figure 1 Compound structures and cell binding characteristics of SW IV-134. (A) The chemical structures of sigma-2 ligand SW43, the SMAC peptidomimetic SW IV-52, and the chemical conjugate SW IV-134. Note that the chirality of SW IV-52 is fully retained in the drug conjugate (asterisks). […] SKOV3 cells were pretreated with increasing concentration of SW IV-134, followed by incubation with SW120, prior to analysis by flow cytometry.
SKOV3 cells (3 × 10^4/well) were seeded into 6 cm plates for 24 hours before treatment. The cells were incubated with 5, 10, 50, and 100 μM doses of SW IV-134 for 30 minutes at 37°C. After this step, 10 nM SW120 was added to the cell culture medium containing SW IV-134. After 30 minute incubation at 37°C, cells were washed twice with phosphate buffered saline (PBS) and harvested with 0.05% trypsin EDTA (Life Technologies, Grand Island, NY). The cells were centrifuged at 1000 × g for 5 minutes and pellets washed twice with PBS. Internalization of SW120 was determined by flow cytometer (FACSCalibur, BD Biosciences, San Jose, CA).
Supplementary file 1476-4598-13-50-S2.pdf: Additional file 2: Figure S1 Receptor binding characteristics of the individual components of SW IV-134. SKOV3 cells were pretreated with increasing concentration of (A) SW43 and (B) SW IV-52, followed by incubation with SW120, prior to analysis by flow cytometry. […] Click here for file

[4] = daily i.p. 90 μL of 7.5 mM stock

T1 sequence (Q60492 whole entry): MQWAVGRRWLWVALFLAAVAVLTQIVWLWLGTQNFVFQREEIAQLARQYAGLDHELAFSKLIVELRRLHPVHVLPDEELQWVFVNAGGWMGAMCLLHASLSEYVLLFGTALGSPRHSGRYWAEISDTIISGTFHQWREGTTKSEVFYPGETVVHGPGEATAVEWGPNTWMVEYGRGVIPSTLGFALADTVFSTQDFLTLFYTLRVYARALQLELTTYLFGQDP

| Compound | Ki [1] | Bioluminescence signal intensity at the end of the 3 week treatment ([2]; daily i.p. 90 μL of 7.5 mM stock, day 21) | Tumor response by bioluminescence signal intensity during treatment [2, 4] | Median survival [2] | Extension of median survival ([2]; intraperitoneal metastatic model) | Blocking of SW120 uptake [3] |
| --- | --- | --- | --- | --- | --- | --- |
| COc1ccc(C)cc1NC(=O)OC1CC2CCCC(C1)N2CCCCCCCCCCN[C@@H](C)C(=O)N[C@H](C(=O)N1CCC[C@H]1C(=O)N[C@@H]1CCCc2ccccc21)C(C)(C)C (stereo partly shown) [SW IV-134] | 5740 ± 476 nM | significantly lower than both the SW43 and the vehicle-only treatment groups | Tumor regression was evident by the end of the first week of treatment | 86.5 days | 10 days | dose-dependent reduction of SW120 signal intensity |
| COc1ccc(C)cc1NC(=O)OC1CC2CCCC(C1)N2CCCCCCCCCCN (stereo not shown) [SW43, reference compound] | 134 ± 11.9 nM | – | signal intensity increased | 76.5 days | – | prevents uptake of the fluorescently labeled sigma-2 ligand SW120 in a dose-dependent fashion |

From article PMC4015918, “Conjugation to a SMAC mimetic potentiates sigma-2 ligand induced tumor cell death in ovarian cancer” (Molecular Cancer, 2014)
